Patent publication US11776661B2, “Determination of MAPK-AP-1 pathway activity using unique combination of target genes” (InnoSIGN B.V., priority 2017, dated 2023)

How the values were obtained:
[1] = system: MAPK-AP-1 cellular signaling pathway; experiment: MAPK-AP-1 pathway activity prediction (24 target genes list) on GSE45417, U937 (histiocytic lymphoma) cell line; format: cell-based; conditions: U937, 100 nM TPA vs 0.1% DMSO
Description: The U937 (histiocytic lymphoma) cell line was treated with 0.1% DMSO as control vehicle (group 1: all 3 samples are part of the calibration data set; and group 3), or 100 nM TPA (group 2: all 3 samples are part of the calibration data set; and group 4). Additionally, ZXDC1 knockdown was induced using doxycycline (groups 3 and 4). In the diagram, the vertical axis indicates the odds (on a log 2 scale) that the TF element is “present” resp. “absent”, which corresponds to the MAPK-AP-1 cellular signaling pathway being active resp. passive, wherein values above the horizontal axis correspond to the TF element being more likely “present”/active and values below the horizontal axis indicate that the odds that the TF element is “absent”/passive are larger than the odds that it is “present”/active.

[2] = system: MAPK-AP-1 cellular signaling pathway; experiment: MAPK-AP-1 pathway activity prediction (24 target genes list) on E-MEXP-2213, K562 (erythroleukemia) cells; format: cell-based; conditions: K562, 10 nM TPA vs not treated
Description: K562 (erythroleukemia) cells were either not treated (group 1) or treated with 10 nM TPA (group 2). In the diagram, the vertical axis indicates the odds (on a log 2 scale) that the TF element is “present” resp. “absent”, which corresponds to the MAPK-AP-1 cellular signaling pathway being active resp. passive, wherein values above the horizontal axis correspond to the TF element being more likely “present”/active and values below the horizontal axis indicate that the odds that the TF element is “absent”/passive are larger than the odds that it is “present”/active.

[3] = system: MAPK-AP-1 cellular signaling pathway; experiment: MAPK-AP-1 pathway activity prediction (11 target gene shortlist) on GSE40117, hES-Hep cells; format: cell-based, Human; conditions: 0.11 μM TPA vs control conditions
Description: (§1) Human embryonic stem cell derived hepatocyte like cells (hES-Hep) were treated with 0.11 μM TPA (group 2: all 3 samples are part of the calibration data set) and compared to control conditions (group 1). HepG2 (a human liver cancer cell line) were treated with 0.0001 μM TPA (group 4: 3 samples are part of the calibration data set) and compared to control conditions (group 3: 1 sample is part of the calibration data set). In the diagram, the vertical axis indicates the odds (on a log 2 scale) that the TF element is “present” resp. “absent”, which corresponds to the MAPK-AP-1 cellular signaling pathway being active resp. passive, wherein values above the horizontal axis correspond to the TF element being more likely “present”/active and values below the horizontal axis indicate that the odds that the TF element is “absent”/passive are larger than the odds that it is “present”/active.

[4] = system: MAPK-AP-1 cellular signaling pathway; experiment: MAPK-AP-1 pathway activity prediction (Bayesian network model, 24 target genes list) on GSE28878, HepG2 cell line; format: cell-based, human; conditions: HepG2, 500 nM TPA, 12 h, 24 h, 48 h, vs DMSO control vehicle
Description: A HepG2 cell line was treated with DMSO as control vehicle (group 1: 12 h, all 3 samples are part of the calibration data set; group 3: 24 h, 2 samples are part of the calibration data set; group 5: 48 h, 1 sample is part of the calibration data set) or 500 nM TPA (group 2: 12 h, 1 sample is part of the calibration data set; group 4: 24 h, all 3 samples are part of the calibration data set; group 6: 48 h). In the diagram, the vertical axis indicates the odds (on a log 2 scale) that the TF element is “present” resp. “absent”, which corresponds to the MAPK-AP-1 cellular signaling pathway being active resp. passive, wherein values above the horizontal axis correspond to the TF element being more likely “present”/active and values below the horizontal axis indicate that the odds that the TF element is “absent”/passive are larger than the odds that it is “present”/active.

[5] = system: MAPK-AP-1 cellular signaling pathway; experiment: MAPK-AP-1 pathway activity prediction (11 target gene shortlist) on GSE40117, HepG2; format: cell-based, human; conditions: HepG2, 0.0001 μM TPA vs control conditions
Description: as §1

[6] = system: MAPK-AP-1 cellular signaling pathway; experiment: MAPK-AP-1 pathway activity prediction (11 target gene shortlist) on E-MEXP-2573, K562 (erythroleukemia) cells; format: cell-based; conditions: 100 nM TPA for a further 48 h
Description: RNA was extracted from K562 (erythroleukemia) cells after 24 h (groups 1 and 3) or cells were treated with 100 nM TPA for a further 48 h (groups 2 and 4). K562 were either transfected with a control empty vector (groups 1 and 2) or a BASP1-containing vector (groups 3 and 4). In the diagram, the vertical axis indicates the odds (on a log 2 scale) that the TF element is “present” resp. “absent”, which corresponds to the MAPK-AP-1 cellular signaling pathway being active resp. passive, wherein values above the horizontal axis correspond to the TF element being more likely “present”/active and values below the horizontal axis indicate that the odds that the TF element is “absent”/passive are larger than the odds that it is “present”/active.

[7] = system: MAPK-AP-1 cellular signaling pathway; experiment: MAPK-AP-1 pathway activity prediction (24 target genes list) on GSE66853, U937 cells; format: cell-based, human; conditions: 50 ng/ml TPA for 24 h, compared to Ethanol
Description: U937 cells were treated with Ethanol as control vehicle (group 1: all 3 samples are part of the calibration data set; and group 3) or 50 ng/ml TPA (group 2: 1 sample is part of the calibration data set; and group 4) for 24 h. U937 cells were either transduced with an empty vector (groups 1 and 2) or with an EVI1 expression vector (groups 3 and 4). In the diagram, the vertical axis indicates the odds (on a log 2 scale) that the TF element is “present” resp. “absent”, which corresponds to the MAPK-AP-1 cellular signaling pathway being active resp. passive, wherein values above the horizontal axis correspond to the TF element being more likely “present”/active and values below the horizontal axis indicate that the odds that the TF element is “absent”/passive are larger than the odds that it is “present”/active. […] Although it is known that the FOS and JUN promoter region contains EVI1 binding sites it seems that this effect on AP-1 activity is very small compared to the addition of 50 ng/ml TPA.

[8] = system: MAPK-AP-1 cellular signaling pathway; experiment: MAPK-AP-1 pathway activity prediction (11 target gene shortlist) on GSE58235, HepG2 (Human Hepatoma) cell line; format: cell-based; conditions: compared to DMSO and Ethanol
Description: The HepG2 (Human Hepatoma) cell line was treated with 0.5% DMSO (group 1: all 3 samples are part of the calibration data set; group 4: 1 sample is part of the calibration data set), 0.5% Ethanol (groups 2 and 5) or 500 nM TPA (group 3: all 3 samples are part of the calibration data set; and group 6) for 24 hours (groups 1 to 3) or 48 hours (groups 4 to 6). In the diagram, the vertical axis indicates the odds (on a log 2 scale) that the TF element is “present” resp. “absent”, which corresponds to the MAPK-AP-1 cellular signaling pathway being active resp. passive, wherein values above the horizontal axis correspond to the TF element being more likely “present”/active and values below the horizontal axis indicate that the odds that the TF element is “absent”/passive are larger than the odds that it is “present”/active.

Measured: AP-1 activity (log2 odds that TF element is present) after exposure

CCCCCCCCCCCCCC(=O)O[C@@H]1[C@@H](C)[C@@]2(O)[C@@H](C=C(CO)C[C@]3(O)C(=O)C(C)=C[C@@H]23)[C@@H]2C(C)(C)[C@]12OC(C)=O [TPA, 12-O-Tetradecanoylphorbol-13-acetate]
large increase: [1]; ZXDC1 knockdown induced using doxycycline | [1]; without ZXDC1 knockdown | [2] | [3] | [4] | [5] | [6]; K562 transfected with BASP1-containing vector | [6]; K562 transfected with control empty vector | [7]; U937 transduced with EVI1 expression vector | [7]; U937 transduced with empty vector | [8]; HepG2, 500 nM TPA for 24 hours | [8]; HepG2, 500 nM TPA for 48 hours
